In the test the test system is phosphorylated Akt at serine 473 (pAKTs473) in primary human lung fibroblasts. The test is described as follows: High throughput phosphorylated Akt (Ser473) in vitro immunoassay (MSD). The test is classed as cell-based. The following applies: Fibroblast, primary human lung fibroblasts (Lonza), 384-well, compound 1 h, PDGF-BB 10 ng/ml 10 min, read-out: mean pIC50, pAKTser473 high throughput immunoassay (converted). An excerpt: Immunoassay to measure effect of test compounds on phosphorylated Akt at serine 473 (pAKTs473) in primary human lung fibroblasts (Lonza Group Ltd, Basel, Switzerland, Catalogue No. CC-2512) using the MesoScale Discovery (MSD) platform to quantify levels of total Akt and pAKTser473.
Human lung fibroblasts were routinely maintained in fibroblast basal medium supplemented with 2% foetal bovine serum (FBS), 0.1% human fibroblast growth factor (FGF)-B, 0.1% insulin, 0.1% GA-100 (Lonza Group Ltd, Basel, Switzerland, Catalogue No. CC-3132) at 37° C. in 5% CO2 according to the manufacturer's protocol.
For the assay, cells were harvested using Trypsin/EDTA, (Lonza Group Ltd, Basel, Switzerland, Catalogue No. CC-5012), at working concentration of 0.025%, resuspended to give 3×10^5 cells/ml and 50 ul/well seeded into 384-well plates (Greiner Group, Kremsmunster, Austria, Catalogue No. 781091) in media containing 0.4% FBS and incubated o/n at 37° C. in 5% CO2.
Test compounds were dissolved in 100% DMSO to give 10 mM stock solutions and serially diluted to generate an 11-point concentration response curve. Compound were further diluted by […] into 384-well V-bottom polypropylene plates (Greiner Group, Kremsmunster, Austria, Catalogue No. 781280) with media containing 0.4% FBS to give 50 µM top compound concentration in 0.5% DMSO.
Compounds were transferred to 384-well plates contacting cells (0.1% DMSO final) and incubated for 1 h at 37° C. in 5% CO2, prior to stimulation with platelet-derived growth factor (PDGF)-BB (R&D Systems, Catalogue No. 220-BB) at 10 ng/ml (final) for 10 min at RT. Cell assay plates were incubated on ice and treated with lysis buffer (Cell Signalling Technology, Catalogue No. 9806) containing protease and phosphatase inhibitors (Thermo Scientific, Catalogue No. 78444) followed by shaking for 30 min at 4° C.
MSD plates (MSD, MA6000 384-well GAR plate, Catalogue No. L21RA-2) were blocked with blocking buffer containing TBS (MSD, Cat. No. R61TX-1) with 0.5% bovine serum albumin (BSA) (Sigma Aldrich, Cat. No. A7906), 0.1% tween-20 (Sigma Aldrich, Catalogue No. P2287) and coated with rabbit-anti-human pAkt (s473) ab (Cell Signalling Technology, Catalogue No. CST #4060) at RT with shaking, followed by washing (×3) with 1×TBS wash reagent containing 0.1% Tween-20. Cell lysates (30 ul) were added and MSD plates centrifuged at 1000 rpm at 4° C. o/n.
Plates were washed with 1×TBS wash buffer (×3), prior to addition of mouse-anti-human-total Akt ab (1 mg/ml) (Upstate (Milipore), Catalogue No. 05-591) in blocking buffer and shaken at RT for 1 h. After washing with 1×TBS wash buffer (×3), plates were incubated with goat-anti-mouse SULFO-TAG detection ab (MSD, Catalogue No. R32AC-1) (1:500 in blocking buffer) for 1 h at RT. Plates were washed with 1×TBS (×3) and read buffer (2×) (MSD, Catalogue No. R92TC-1) added before detecting electrochemiluminescence (MSD Sector Imager 6000).
Data analysis was performed by determining % inhibition values for test compounds relative to the minimum (+PDGF-BB stimulation) and maximum responses (no PDGF-BB stimulation) with non-linear regression analysis to determine IC50 values for test compounds.

Regarding `CC[C@H]1COCCN1c1cc(CS(C)(=O)=O)nc(-c2ccc3[nH]c(CNC)cc3n2)n1` [Example 1, [(5-{4-[(3S)-3-ethylmorpholin-4-yl]-6-(methanesulfonylmethyl)pyrimidin-2-yl}-1H-pyrrolo[3,2-b]pyridin-2-yl)methyl](methyl)amine], the IC50 is 0.00251 to 0.0251 µM.
With `CNCc1cc2nc(-c3cc(CS(C)(=O)=O)cc(N4CCO[C@H](C)[C@H]4C)n3)ccc2[nH]1` [Example 8, 1-(5-(6-((2R,3R)-2,3-dimethylmorpholino)-4-((methylsulfonyl)methyl)pyridin-2-yl)-1Hpyrrolo[3,2-b]pyridin-2-yl)-Nmethylmethanamine] the figure was 0.00251 to 0.0251 µM.
Then `CC[C@H]1COCCN1c1cc(CS(=O)(=O)N(C)C)nc(-c2ccc3[nH]c(CO)cc3n2)n1` [Example 9, 1-{6-[(3S)-3-ethylmorpholin-4-yl]-2-[2-(hydroxymethyl)-1H-pyrrolo[3,2-b]pyridin-5-yl]pyrimidin-4-yl}-N,N-dimethylmethanesulfonamide], with 0.00251 to 0.0251 µM.
Then `CC[C@H]1COCCN1c1cc(CS(=O)(=O)NC)nc(-c2ccc3[nH]c(CO)cc3n2)n1` [Example 10, 1-{6-[(3S)-3-ethylmorpholin-4-yl]-2-[2-(hydroxymethyl)-1H-pyrrolo[3,2-b]pyridin-5-yl]pyrimidin-4-yl}-N-methylmethanesulfonamide], with 0.00251 to 0.0251 µM; and `CC[C@H]1COCCN1c1cc(C2(S(C)(=O)=O)CCOCC2)nc(-c2ccc3[nH]c(C)cc3n2)n1` [Example 13, (3S)-3-ethyl-4-[6-(4-methanesulfonyloxan-4-yl)-2-{2-methyl-1H-pyrrolo[3,2-b]pyridin-5-yl}pyrimidin-4-yl]morpholine], with 0.00251 to 0.0251 µM; and `CC[C@H]1COCC(=O)N1c1cc(CS(C)(=O)=O)nc(-c2ccc3[nH]c(C)cc3n2)n1` [Example 14, (5S)-5-ethyl-4-[6-(methanesulfonylmethyl)-2-{2-methyl-1H-pyrrolo[3,2-b]pyridin-5-yl}pyrimidin-4-yl]morpholin-3-one], with 0.00251 to 0.0251 µM.
Regarding `CCc1cc2nc(-c3nc(CS(C)(=O)=O)cc(N4C(=O)COC[C@@H]4CC)n3)ccc2[nH]1` [Example 15, (5S)-5-ethyl-4-(2-{2-ethyl-1H-pyrrolo[3,2-b]pyridin-5-yl}-6-(methanesulfonylmethyl)pyrimidin-4-yl)morpholin-3-one], the IC50 was 0.00251 to 0.0251 µM.
Turning to `CC[C@H]1COCCN1c1cc(CS(=O)(=O)N(C)C)nc(-c2ccc3[nH]c(CNC)cc3n2)n1` [Example 16, 1-{6-[(3S)-3-ethylmorpholin-4-yl]-2-{2-[(methylamino)methyl]-1H-pyrrolo[3,2-b]pyridin-5-yl}pyrimidin-4-yl}-N,N-dimethylmethanesulfonamide], the IC50 was 0.00251 to 0.0251 µM.
With `CC[C@H]1COCCN1c1cc(CS(N)(=O)=O)cc(-c2ccc3[nH]c(C)cc3n2)n1` [Example 23, (S)-(2-(3-ethylmorpholino)-6-(2-methyl-1H-pyrrolo[3,2-b]pyridin-5-yl)pyridin-4-yl)methanesulfonamide] the figure was 0.00251 to 0.0251 µM; with `CC[C@H]1COCC(=O)N1c1cc(CS(C)(=O)=O)cc(-c2ccc3[nH]c(C)cc3n2)n1` [Example 24, (S)-5-ethyl-4-(6-(2-methyl-1H-pyrrolo[3,2-b]pyridin-5-yl)-4-((methylsulfonyl)methyl)pyridin-2-yl)morpholin-3-one], 0.00251 to 0.0251 µM.
Then `CC[C@H]1COCC(=O)N1c1cc(C2(S(C)(=O)=O)CCOCC2)cc(-c2ccc3[nH]c(C)cc3n2)n1` [Example 25, (S)-5-ethyl-4-(6-(2-methyl-1H-pyrrolo[3,2-b]pyridin-5-yl)-4-(4-(methylsulfonyl)tetrahydro-2H-pyran-4-yl)pyridin-2-yl)morpholin-3-one], with 0.00251 to 0.0251 µM; and `CC[C@H]1COCC(=O)N1c1cc(C2(S(C)(=O)=O)CCOCC2)cc(-c2ccc3[nH]c(CO)cc3n2)n1` [Example 26], with 0.00251 to 0.0251 µM.
